The experiment has as its system BDF1 mice, P388 leukemia ip, median survival T/C. The experiment is described as follows: NCI In Vivo Anticancer Drug Screen. Data for tumor model P388 Leukemia (intraperitoneal) in B6D2F1 (BDF1) mice. To be noted: endpoint: median survival time, higher = longer survival. The essentials:
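Mice carrying the transplantable tumour receive compound or vehicle. Survival is followed in each arm, and the treated measure is divided by the vehicle measure.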

Where [1] appears, read: dose: 100.0 mg/kg/injection, schedule: Q01DX009 (ip), vehicle: saline with Tween-80.
[2] abbreviates: dose: 100.0 mg/kg/injection, schedule: Q04DX003 (ip), vehicle: saline with Tween-80.
Setting [3] is: dose: 200.0 mg/kg/injection, schedule: Q01DX009 (ip), vehicle: saline with Tween-80.
The mark [4] stands for this setting: dose: 200.0 mg/kg/injection, schedule: Q04DX003 (ip), vehicle: saline with Tween-80.
The mark [5] stands for this setting: dose: 50.0 mg/kg/injection, schedule: Q01DX009 (ip), vehicle: saline with Tween-80.
[6] abbreviates: dose: 12.5 mg/kg/injection, schedule: Q01DX009 (ip), vehicle: saline with Tween-80.
[7] abbreviates: dose: 25.0 mg/kg/injection, schedule: Q01DX009 (ip), vehicle: saline with Tween-80.
Setting [8] is: dose: 200.0 mg/kg/injection, schedule: Q04DX003 (ip), vehicle: saline.
[9] abbreviates: dose: 100.0 mg/kg/injection, schedule: Q01DX009 (ip), vehicle: saline.
[10] abbreviates: dose: 50.0 mg/kg/injection, schedule: Q01DX009 (ip), vehicle: saline.
Where [11] appears, read: dose: 100.0 mg/kg/injection, schedule: Q01DX009 (ip), vehicle: Klucel (hydroxypropylcellulose) (HPC).
The mark [12] stands for this setting: dose: 200.0 mg/kg/injection, schedule: Q01DX009 (ip), vehicle: Klucel (hydroxypropylcellulose) (HPC).

Where “and” joins values, the source holds several entries; their conditions need not be identical. Equal values may be shown once. Toxic doses and inconclusive results are not listed.

As for `O=C(Oc1ccc([N+](=O)[O-])cc1)c1ccc2ccccc2n1`, the T/C is 111 % of control under setting [1]; 95 % of control under setting [2]; 111 % of control under setting [3]; 109 % of control under setting [4]; 95 % of control (dose: 400.0 mg/kg/injection, schedule: Q01DX009 (ip), vehicle: saline with Tween-80); 90 % of control (dose: 400.0 mg/kg/injection, schedule: Q04DX003 (ip), vehicle: saline with Tween-80).
As for `Nc1ccn(C2CC(O)C(CO)O2)c(=O)n1` (stereo not drawn), the T/C reads like this: (dose: 2.3 mg/kg/injection, schedule: Q01DX009 (ip), vehicle: water) 117 % of control; (dose: 9.37 mg/kg/injection, schedule: Q01DX009 (ip), vehicle: water) 117 % of control; (dose: 18.75 mg/kg/injection, schedule: Q01DX009 (ip), vehicle: water) 110 % of control.
As for `O=[N+]([O-])c1ccc(Sc2ccc([N+](=O)[O-])cc2)cc1`, the T/C is, setting by setting: under setting [5], 90 % of control; (dose: 50.0 mg/kg/injection, schedule: Q04DX003 (ip), vehicle: saline with Tween-80) 100 % of control; under setting [1], 95 % of control; under setting [3], 90 % of control; under setting [4], 100 % of control.
As to `Cc1cc2[nH]c(=O)c(=O)[nH]c2cc1C`, the T/C (dose: 10.0 mg/kg/injection, schedule: Q01DX009 (ip), vehicle: Klucel (hydroxypropylcellulose) (HPC)) was 109 % of control; the T/C (dose: 20.0 mg/kg/injection, schedule: Q01DX009 (ip), vehicle: Klucel (hydroxypropylcellulose) (HPC)) is 109 % of control; the T/C (dose: 40.0 mg/kg/injection, schedule: Q01DX009 (ip), vehicle: Klucel (hydroxypropylcellulose) (HPC)) is 100 % of control; the T/C (dose: 75.0 mg/kg/injection, schedule: Q01DX009 (ip), vehicle: Klucel (hydroxypropylcellulose) (HPC)) was 86 % of control.
In the case of `CCCC[S+](CCCC)CC(=O)c1ccc(-c2ccccc2)cc1`, the T/C by setting is: (dose: 1.56 mg/kg/injection, schedule: Q01DX009 (ip), vehicle: saline with Tween-80) 105 % of control; (dose: 3.13 mg/kg/injection, schedule: Q01DX009 (ip), vehicle: saline with Tween-80) 100 % of control; (dose: 6.25 mg/kg/injection, schedule: Q01DX009 (ip), vehicle: saline with Tween-80) 106 % of control; under setting [6], 107 % of control; under setting [7], 113 % of control.
For the molecule `COc1cc2c(c(OC)c1OC)-c1ccc(OC)c(=O)cc1[C@@H](NC(=O)C(F)(F)F)CC2`, the T/C reads like this: (dose: 0.09 mg/kg/injection, schedule: Q01DX009 (ip), vehicle: Klucel (hydroxypropylcellulose) (HPC)) 155 % of control; (dose: 0.18 mg/kg/injection, schedule: Q01DX009 (ip), vehicle: Klucel (hydroxypropylcellulose) (HPC)) 171 % of control; (dose: 0.39 mg/kg/injection, schedule: Q01DX009 (ip), vehicle: Klucel (hydroxypropylcellulose) (HPC)) 245 % of control.
With `CCCCCCCC/C=C\CCCCCCCC(=O)OCCCCCCCCCCCCCCC`, the T/C (dose: 100.0 mg/kg/injection, schedule: Q04DX003 (ip), vehicle: saline) was 100 % of control; the T/C under setting [8] is 100 % of control; the T/C (dose: 400.0 mg/kg/injection, schedule: Q04DX003 (ip), vehicle: saline) is 100 % of control.
For the molecule `CCN(CCNc1ccc(C)c2sc3ccccc3c(=O)c12)CC(C)(C)O`, the T/C is 108 % of control (dose: 35.0 mg/kg/injection, schedule: Q01DX009 (ip), vehicle: saline); 105 % of control (dose: 44.0 mg/kg/injection, schedule: Q04DX003 (ip), vehicle: saline); 120 % of control (dose: 66.0 mg/kg/injection, schedule: Q04DX003 (ip), vehicle: saline); 159 % of control under setting [9]; 160 % of control (dose: 132.0 mg/kg/injection, schedule: Q04DX003 (ip), vehicle: saline); 185 % of control under setting [8]. Also, under “dose: 225.0 mg/kg/injection, schedule: Q01DX009 (ip), vehicle: saline”, the T/C is 90 % of control.
On to `CCCCOCN(COCCCC)C(C)Cc1ccccc1` (stereo not drawn), for which, under setting [5], the T/C was 122 % of control.
With `C[C@H]1CN1C1=CC(=O)C(N2C[C@@H]2C)=CC1=O`, the T/C reads like this: (dose: 0.03 mg/kg/injection, schedule: Q01DX009 (ip), vehicle: saline) 109 % of control; (dose: 0.12 mg/kg/injection, schedule: Q01DX009 (ip), vehicle: saline) 118 % of control; (dose: 0.5 mg/kg/injection, schedule: Q01DX009 (ip), vehicle: Klucel (hydroxypropylcellulose) (HPC)) 160 % of control; (dose: 0.5 mg/kg/injection, schedule: Q01DX009 (ip), vehicle: saline) 191 % of control; (dose: 1.0 mg/kg/injection, schedule: Q01DX009 (ip), vehicle: Klucel (hydroxypropylcellulose) (HPC)) 160 % of control; (dose: 1.0 mg/kg/injection, schedule: Q01DX009 (ip), vehicle: saline) 220 % of control. Further, the T/C is, setting by setting: (dose: 2.0 mg/kg/injection, schedule: Q01DX009 (ip), vehicle: Klucel (hydroxypropylcellulose) (HPC)) 200 % of control; (dose: 4.0 mg/kg/injection, schedule: Q01DX009 (ip), vehicle: Klucel (hydroxypropylcellulose) (HPC)) 190 % of control.
As to `O=C1c2ccccc2C(=O)c2cc(S(=O)(=O)Cl)ccc21`, the T/C (dose: 100.0 mg/kg/injection, schedule: Q01DX001 (ip), vehicle: saline) is 109 % of control; the T/C (dose: 200.0 mg/kg/injection, schedule: Q01DX001 (ip), vehicle: saline) is 109 % of control; the T/C (dose: 400.0 mg/kg/injection, schedule: Q01DX001 (ip), vehicle: saline) is 90 % of control.
As for `O=C(Nc1cc(C(F)(F)F)ccc1Cl)ON1CCCCC1`, the T/C is 107 % of control under setting [6]; 94 % of control under setting [7]; 114 % of control and 124 % of control under setting [5]; 100 % of control and 102 % of control under setting [1]; 91 % of control under setting [3].
For the molecule `C[C@@H]1CC2=CC(=O)CC[C@@H]2[C@H]2CC[C@@]3(C)[C@@H](CC[C@]3(C)O)[C@@H]21`, the T/C is, setting by setting: under setting [1], 104 % of control; under setting [2], 100 % of control; under setting [3], 90 % of control.
Consider `CN(C)CCC12CC(=O)CCC1C=Cc1ccc(O)c(O)c12` (stereo not drawn), for which the T/C is 100 % of control (dose: 25.0 mg/kg/injection, schedule: Q01DX009 (ip), vehicle: saline); 95 % of control under setting [10]; 91 % of control under setting [9].
On to `CC12C(=O)C(C)(C(c3ccccc3)=C1c1ccccc1)C1(c3ccccc3)C(c3ccccc3)C21c1ccccc1` (stereo not drawn), for which the T/C (dose: 50.0 mg/kg/injection, schedule: Q01DX009 (ip), vehicle: Klucel (hydroxypropylcellulose) (HPC)) is 100 % of control; the T/C under setting [11] is 100 % of control; the T/C under setting [12] was 104 % of control.
Turning to `S=C1NC(c2ccccc2)NC(c2ccccc2)S1` (stereo not drawn), the T/C was 95 % of control (dose: 100.0 mg/kg/injection, schedule: Q01DX001 (ip), vehicle: Klucel (hydroxypropylcellulose) (HPC)); 111 % of control under setting [11]; 91 % of control and 100 % of control (dose: 100.0 mg/kg/injection, schedule: Q04DX003 (ip), vehicle: Klucel (hydroxypropylcellulose) (HPC)); 95 % of control (dose: 200.0 mg/kg/injection, schedule: Q01DX001 (ip), vehicle: Klucel (hydroxypropylcellulose) (HPC)); 111 % of control under setting [12]; 91 % of control and 108 % of control (dose: 200.0 mg/kg/injection, schedule: Q04DX003 (ip), vehicle: Klucel (hydroxypropylcellulose) (HPC)). Also, the T/C is 111 % of control (dose: 400.0 mg/kg/injection, schedule: Q01DX009 (ip), vehicle: Klucel (hydroxypropylcellulose) (HPC)); 87 % of control and 108 % of control (dose: 400.0 mg/kg/injection, schedule: Q04DX003 (ip), vehicle: Klucel (hydroxypropylcellulose) (HPC)).
As for `CC(=O)Nc1onc(C)c1N`, the T/C under setting [10] was 90 % of control; the T/C under setting [9] is 100 % of control; the T/C (dose: 200.0 mg/kg/injection, schedule: Q01DX009 (ip), vehicle: saline) was 95 % of control.
